# Test results as given in PubChem BioAssay AID2060495 (Molecular Pharmacology Branch, DTP, NCI, 2025).
# System: 521955-158-R2-J5-PDC complex spheroid viability
# Assay: Anticancer human tumor 521955-158-R2-J5-PDC patient-derived pancreatic carcinoma cell line growth inhibition [GQUAD]
# Conditions: for IC50: curve of first compound; for viability, T/C: stronger effect = lower value
# From the text: DNA G-quadruplex Stabilizer Agents in Combinations in Complex Spheroids
# A high-throughput screen of multi-cell type tumor spheroids was designed to identify active combinations of DNA G-quadruplex stabilizer agents and targeted small molecules. Complex spheroids include a stromal component modeled by human endothelial cells (HUVEC) and fibroblasts modeled by human mesenchymal stem cells (MSCs). The concentration ranges selected for each drug and investigational agent were based upon clinically achievable concentrations if the clinical Cmax of the agent was known.
# Compounds. The drugs and investigational agents: pidnarulex (CX-5461; NSC782164), APTO-253 (NSC789042), BRACO-19 (NSC847499), peposertib (NSC802822), ceralasertib (NSC780249), elimusertib (NSC800525), camonsertib (NSC841442), AZD-1390 (NSC803789), olaparib (NSC753686), talazoparib (NSC767125), ART-558 (NSC835418), sotorasib (NSC818433), MRTX-1133 (NSC836407), SN-38 (NSC673596), topotecan (NSC609699), etoposide (NSC141540), doxorubicin (NSC123127), gemcitabine (NSC613327), 5-fluorouracil (NSC19893), paclitaxel (NSC125973), vemurafenib (NSC761431), panobinostat (NSC761190), R-306465 (JNJ-16241199; NSC773264), adavosertib (NSC754352), TP-3654 (NSC805149), carboplatin (NSC241240), KSQ-4279 (NSC840948), and staurosporine (NSC755774) were obtained from the National Cancer Institute (NCI) Developmental Therapeutics Program Chemical Repository (34). The FDA-approved anticancer drug set is available from the NCI Developmental Therapeutics Program. […] The stock solutions were prepared in dimethyl sulfoxide (DMSO, Sigma-Aldrich, St. Louis, MO, cat. D2650) at 800-fold the tested concentration and stored at -70 degrees C prior to their use. All drugs and investigational agents were tested over a range starting from a high concentration at or near the clinical Cmax and decreasing in half-log increments. If the clinical Cmax for an agent had not been determined, the highest concentration tested was 10 microM.
# 2.3 Cell Culture. All cells were maintained in an incubator at 37 degrees C and 5% CO2 with 95% humidity. The PDC lines were cultured according to standard operating procedures established by the NCI PDMR. All PDCs were thawed and cultured in Matrigel-coated flasks prepared with a working solution of 1X Ham's F-12 nutrient mix, without supplementation (Invitrogen, cat. 11765054), 100 U/mL penicillin-streptomycin (Invitrogen, cat. 15140122), and 2.5% Matrigel (Corning Inc., cat. 354248) for the first three passages. The 857933-349-R-J2-PDC line was cultured in 6C/Colon 1B media, which includes advanced DMEM/F-12 (Thermo Fisher Scientific, cat. 12634028), 10 mM HEPES (Thermo Fisher Scientific, cat. 15630080), 1X GlutaMAX supplement (Thermo Fisher Scientific, cat. 35050061), 0.1 mg/mL primocin (InvivoGen, cat. ant-pm-2), 10% defined fetal bovine serum, heat inactivated (HyClone Laboratories Inc., cat. SH30070.03HI), 50% L-WRN conditioned media (ATCC, cat. CRL-3276), 1.25 mM N-Acetyl-L-cysteine (Sigma-Aldrich, cat. A9165), 10 mM nicotinamide (Sigma-Aldrich, cat. N0636), 1X B-27 supplement (Thermo Fisher Scientific, cat. 17504044), 1X N-2 supplement (Thermo Fisher Scientific, cat. 17502048), 10 microM Y-27632 dihydrochloride (Tocris Bioscience, cat. 1254), and 50 ng/mL human EGF recombinant protein (Thermo Fisher Scientific, cat. PHG0311). The 485176-168-R4-J1-PDC line was cultured in Panc media, which includes all 6C/Colon 1B media components plus 100 ng/mL human FGF-10 (Thermo Fisher Scientific, cat. 100-26), 500 nM SB-431542 (Selleckchem, cat. S1067), and gastrin (Tocris, cat. 3006).
# […]
# [1] = second compound 0.0316 µM, first compound 0.0316 µM
# [2] = second compound 0.0316 µM, first compound 0.1 µM
# [3] = second compound 0.0316 µM, first compound 0.316 µM
# [4] = second compound 0.0316 µM, first compound 1 µM
# [5] = second compound 0.0316 µM, first compound 3.16 µM
# [6] = second compound 0.0316 µM, first compound 10 µM
# [7] = second compound 0.1 µM, first compound 0.0316 µM
# [8] = second compound 0.1 µM, first compound 0.1 µM
# [9] = second compound 0.1 µM, first compound 0.316 µM
# [10] = second compound 0.1 µM, first compound 1 µM
# [11] = second compound 0.1 µM, first compound 3.16 µM
# [12] = second compound 0.1 µM, first compound 10 µM
# [13] = second compound 0.316 µM, first compound 0.0316 µM
# [14] = second compound 0.316 µM, first compound 0.1 µM
# [15] = second compound 0.316 µM, first compound 0.316 µM
# [16] = second compound 0.316 µM, first compound 1 µM
# [17] = second compound 0.316 µM, first compound 3.16 µM
# [18] = second compound 0.316 µM, first compound 10 µM
# [19] = second compound 1 µM, first compound 0.0316 µM
# [20] = second compound 1 µM, first compound 0.1 µM
# [21] = second compound 1 µM, first compound 0.316 µM
# [22] = second compound 1 µM, first compound 1 µM
# [23] = second compound 1 µM, first compound 3.16 µM
# [24] = second compound 1 µM, first compound 10 µM
# [25] = second compound 3.16 µM, first compound 0.0316 µM
# [26] = second compound 3.16 µM, first compound 0.1 µM
# [27] = second compound 3.16 µM, first compound 0.316 µM
# [28] = second compound 3.16 µM, first compound 1 µM
# [29] = second compound 3.16 µM, first compound 3.16 µM
# [30] = second compound 3.16 µM, first compound 10 µM
# [31] = second compound 10 µM, first compound 0.0316 µM
# [32] = second compound 10 µM, first compound 0.1 µM
# [33] = second compound 10 µM, first compound 0.316 µM
# [34] = second compound 10 µM, first compound 1 µM
# [35] = second compound 10 µM, first compound 3.16 µM
# [36] = second compound 10 µM, first compound 10 µM
# 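Also: spheroids exposed to agents for one week before reading.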
# 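For viability, T/C in this document: 100% = DMSO vehicle control viability.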
structure (smiles),measurement,setting,value
Cc1cccc(N(C)C(=O)C2C(O)CCN2c2nc(C)cc(C(F)(F)F)c2C#N)c1 (centres undefined) + CN(C)c1ccc(Nc2c3ccc(NC(=O)CCN4CCCC4)cc3nc3cc(NC(=O)CCN4CCCC4)ccc23)cc1,IC50,second compound 0.0316 µM,> 10 µM
same,IC50,second compound 0.1 µM,> 10 µM
same,IC50,second compound 0.316 µM,> 10 µM
same,IC50,second compound 1 µM,> 10 µM
same,IC50,second compound 3.16 µM,> 10 µM
same,IC50,second compound 10 µM,2.59 µM
same,"viability, T/C",[1],110%
same,"viability, T/C",[2],102%
same,"viability, T/C",[3],99.6%
same,"viability, T/C",[4],107%
same,"viability, T/C",[5],103%
same,"viability, T/C",[6],116%
same,"viability, T/C",[7],102%
same,"viability, T/C",[8],91.4%
same,"viability, T/C",[9],99.3%
same,"viability, T/C",[10],96.3%
same,"viability, T/C",[11],125%
same,"viability, T/C",[12],109%
same,"viability, T/C",[13],104%
same,"viability, T/C",[14],95.2%
same,"viability, T/C",[15],103%
same,"viability, T/C",[16],118%
same,"viability, T/C",[17],130%
same,"viability, T/C",[18],99.9%
same,"viability, T/C",[19],84.6%
same,"viability, T/C",[20],99.7%
same,"viability, T/C",[21],96.3%
same,"viability, T/C",[22],86%
same,"viability, T/C",[23],94.4%
same,"viability, T/C",[24],84.2%
same,"viability, T/C",[25],85.8%
same,"viability, T/C",[26],72.1%
same,"viability, T/C",[27],77.4%
same,"viability, T/C",[28],78%
same,"viability, T/C",[29],93.4%
same,"viability, T/C",[30],54.1%
same,"viability, T/C",[31],67.2%
same,"viability, T/C",[32],54.3%
same,"viability, T/C",[33],58%
same,"viability, T/C",[34],58.4%
same,"viability, T/C",[35],48.5%
same,"viability, T/C",[36],18.8%
CC(C)n1c(=O)n(C)c2cnc3cc(F)c(-c4ccc(OCCCN5CCCCC5)nc4)cc3c21 + Cc1[nH]c2ccc(F)cc2c1-c1nc2c3cccnc3c3ncccc3c2[nH]1,IC50,second compound 0.0316 µM,> 10 µM
same,IC50,second compound 0.1 µM,> 10 µM
same,IC50,second compound 0.316 µM,> 10 µM
same,IC50,second compound 1 µM,> 10 µM
same,IC50,second compound 3.16 µM,> 10 µM
same,IC50,second compound 10 µM,> 10 µM
same,"viability, T/C",[1],116%
same,"viability, T/C",[2],90.8%
same,"viability, T/C",[3],109%
same,"viability, T/C",[4],84.5%
same,"viability, T/C",[5],101%
same,"viability, T/C",[6],94.4%
same,"viability, T/C",[7],94.8%
same,"viability, T/C",[8],114%
same,"viability, T/C",[9],97.7%
same,"viability, T/C",[10],105%
same,"viability, T/C",[11],115%
same,"viability, T/C",[12],84.8%
same,"viability, T/C",[13],105%
same,"viability, T/C",[14],108%
same,"viability, T/C",[15],116%
same,"viability, T/C",[16],104%
same,"viability, T/C",[17],90.8%
same,"viability, T/C",[18],83.7%
same,"viability, T/C",[19],101%
same,"viability, T/C",[20],113%
same,"viability, T/C",[21],104%
same,"viability, T/C",[22],94.9%
same,"viability, T/C",[23],108%
same,"viability, T/C",[24],91.1%
same,"viability, T/C",[25],107%
same,"viability, T/C",[26],110%
same,"viability, T/C",[27],109%
same,"viability, T/C",[28],102%
same,"viability, T/C",[29],115%
same,"viability, T/C",[30],94.2%
same,"viability, T/C",[31],114%
same,"viability, T/C",[32],92.8%
same,"viability, T/C",[33],115%
same,"viability, T/C",[34],110%
same,"viability, T/C",[35],108%
same,"viability, T/C",[36],79.1%
